# Where a name gives a salt, the structure may show the parent alone.
# Biological target: human norepinephrine transporter (hNET) (Homo sapiens, UniProt P23975)
# Test: hNET uptake, Protocol B: cell based norepinephrine reuptake assay using recombinant hNET (MDCK-Net6 cells)
# Conditions: NE uptake (Protocol B) IC50 (nM), MDCK-Net6 cells, 3H-NE 16 nM
# Sequence of human norepinephrine transporter (hNET) (P23975 whole entry): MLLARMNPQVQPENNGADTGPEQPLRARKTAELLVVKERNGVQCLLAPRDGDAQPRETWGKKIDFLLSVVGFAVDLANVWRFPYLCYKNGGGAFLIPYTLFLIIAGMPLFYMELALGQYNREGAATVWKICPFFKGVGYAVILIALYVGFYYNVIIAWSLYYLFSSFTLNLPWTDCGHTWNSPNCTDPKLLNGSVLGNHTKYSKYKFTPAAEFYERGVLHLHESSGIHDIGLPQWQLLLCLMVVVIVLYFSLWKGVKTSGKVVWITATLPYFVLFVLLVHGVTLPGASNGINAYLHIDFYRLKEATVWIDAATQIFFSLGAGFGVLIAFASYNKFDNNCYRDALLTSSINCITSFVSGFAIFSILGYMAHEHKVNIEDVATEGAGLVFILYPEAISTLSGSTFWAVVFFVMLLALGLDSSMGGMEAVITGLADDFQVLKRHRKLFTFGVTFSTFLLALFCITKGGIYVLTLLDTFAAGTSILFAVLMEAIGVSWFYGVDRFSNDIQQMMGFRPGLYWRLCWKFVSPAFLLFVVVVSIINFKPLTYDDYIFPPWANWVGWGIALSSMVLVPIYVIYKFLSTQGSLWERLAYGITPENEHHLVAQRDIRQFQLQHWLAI
row,SMILES,IC50
1,"CCNCCCCN1c2ccccc2N(c2c(F)cccc2F)S1(=O)=O [Example 122, 4-[3-(2,6-difluorophenyl)-2,2-dioxido-2,1,3-benzothiadiazol-1(3H)-yl]-N-ethylbutan-1-amine hydrochloride]",48 nM
2,"CNCCCN1c2ccccc2N(c2cccnc2)S1(=O)=O [Example 34, 3-(2,2-dioxido-3-pyridin-3-yl-2,1,3-benzothiadiazol-1(3H)-yl)-N-methylpropan-1-amine hydrochloride]",85 nM
3,"CC(C)NCCCCN1c2ccccc2N(c2c(F)cccc2F)S1(=O)=O [Example 123, 4-[3-(2,6-difluorophenyl)-2,2-dioxido-2,1,3-benzothiadiazol-1(3H)-yl]-N-isopropylbutan-1-amine hydrochloride]",1170 nM
4,"CNCCCN1c2ccccc2N(c2ccc(Cl)cc2)S1(=O)=O [Example 1, 3-[3-(4-chlorophenyl)-2,2-dioxido-2,1,3-benzothiadiazol-1(3H)-yl]-N-methylpropan-1-amine]",20.5 nM
5,"CNCCCN1c2ccccc2N(c2cccc(C(F)(F)F)c2)S1(=O)=O [Example 51, 3-{2,2-dioxido-3-[3-(trifluoromethyl)phenyl]-2,1,3-benzothiadiazol-1(3H)-yl}-N-methylpropan-1-amine hydrochloride]",3170 nM
6,"CNCCCN1c2ccc(-c3ccccc3)cc2N(c2ccccc2F)S1(=O)=O [Example 71, 3-[3-(2-fluorophenyl)-2,2-dioxido-5-phenyl-2,1,3-benzothiadiazol-1(3H)-yl]-N-methylpropan-1-amine hydrochloride]",206 nM
7,"CNCCCN1c2ccccc2N(c2ccc(F)c(F)c2F)S1(=O)=O [Example 113, 3-[2,2-dioxido-3-(2,3,4-trifluorophenyl)-2,1,3-benzothiadiazol-1(3H)-yl]-N-methylpropan-1-amine]",109 nM
8,"CNCCCN1c2cnccc2N(c2ccccc2)S1(=O)=O [Example 25, 3-(2,2-dioxido-1-phenyl[1,2,5]thiadiazolo[3,4-c]pyridin-3(1H)-yl)-N-methylpropan-1-amine]",146 nM
9,"O=S1(=O)N(CCCNC2CCC2)c2ccccc2N1c1c(F)cccc1F [Example 128, N-{3-[3-(2,6-difluorophenyl)-2,2-dioxido-2,1,3-benzothiadiazol-1(3H)-yl]propyl}cyclobutanamine hydrochloride]",222 nM
10,"CNCCCCN1c2ccccc2N(c2ccc(F)c(F)c2)S1(=O)=O [Example 110, 4-[3-(3,4-difluorophenyl)-2,2-dioxido-2,1,3-benzothiadiazol-1(3H)-yl]-N-methylbutan-1-amine]",39 nM
11,"NCCCCCCN1c2ccccc2N(c2ccccc2F)S1(=O)=O [Example 102, 6-[3-(2-fluorophenyl)-2,2-dioxido-2,1,3-benzothiadiazol-1(3H)-yl]hexan-1-amine]",26 nM
12,"CNCCCN1c2c(F)cccc2N(c2ccc(F)cc2F)S1(=O)=O [Example 78, 3-[3-(2,4-Difluorophenyl)-7-fluoro-2,2-dioxido-2,1,3-benzothiadiazol-1(3H)-yl]-N-methylpropan-1-amine hydrochloride]",45 nM
13,"CNCCCN1c2cccc(F)c2N(c2ccc(F)cc2F)S1(=O)=O [Example 79, 3-[3-(2,4-Difluorophenyl)-4-fluoro-2,2-dioxido-2,1,3-benzothiadiazol-1(3H)-yl]-N-methylpropan-1-amine hydrochloride]",9 nM
14,"CNCCCN1c2cc(F)ccc2N(c2ccccc2)S1(=O)=O [Example 35, 3-(6-fluoro-2,2-dioxido-3-phenyl-2,1,3-benzothiadiazol-1(3H)-yl)-N-methylpropan-1-amine]",20.6 nM
15,"O=S1(=O)N(CCCNC2CC2)c2ccccc2N1c1ccccc1 [Example 96, N-[3-(2,2-dioxido-3-phenyl-2,1,3-benzothiadiazol-1(3H)-yl)propyl]cyclopropanamine]",113 nM
16,"CNCCCN1c2cc(C#N)ccc2N(c2ccccc2)S1(=O)=O [Example 43, 3-[3-(methylamino)propyl]-1-phenyl-1,3-dihydro-2,1,3-benzothiadiazole-5-carbonitrile 2,2-dioxide]",1320 nM

# Reference: patent US20080161366A1, “AMINOALKYL SUBSTITUTED ARYL SULFAMIDE DERIVATIVES AND METHODS OF THEIR USE” (Wyeth, priority 2006, published 2008)
